Reference: US6706698B2, “α-Substituted β-aminoethyl phosphonate derivatives” (Ilex Products, Inc., priority 2000, dated 2004)

What was measured:
apo (a) = apo (a) secretion in primary cultures of Cynomolgus hepatocytes (ELISA); type: cell-based, Cynomolgus monkey; settings: Macaca fascicularis, Hepatocyte, 6-24 hours, vs ethanol control, read-out: change in apo (a) secretion in culture medium, percentage of control
Experimental: The compounds of formula (I) were assayed for being able to effectively lower the production of apo (a) in primary cultures of Cynomolgus hepatocytes.
Hepatocytes were isolated from livers of male adult Cynomolgus monkeys by the two-step collagenase perfusion method according to C. Guguen-Guillouzo and A. Guillouzo “Methods for preparation of adult and fetal hepatocytes” p.1-12 in “Isolated and Cultured Hepatocytes”, les editions Inserm Paris and John Libbey Eurotext London (1986).
The viability of cells was determined by Trypan blue staining. The cells were then seeded at a density of 1.5-2.105 viable cells per 2 cm^2 in 24 well tissue culture plates in a volume of 500 μl per well of Williams E tissue culture medium containing 10% fetal calf serum. Cells were incubated for 6-24 hours at 37° C. in a CO2 incubator (5% CO2) in the presence of 20 μM of the test compounds dissolved in ethanol. Four wells were used for each compound. Nicotinic acid and steroid hormones were used as references to validate the assay system since they are known to decrease apo (a) in man. Control cells were incubated in the presence of ethanol only.
The amount of apo (a) secreted in culture medium was assayed directly by ELISA using a commercially available kit. Changes in apo (a) concentration in culture medium are given as the percentage of value measured for the control plates.

| SMILES | inhibition at 20 µM (apo (a)) [%] | melting point [°C] |
| --- | --- | --- |
| CCOP(=O)(OCC)C(CNc1cnccn1)c1cc(C)c(O)c(C(C)(C)C)c1 (stereo not drawn) [Example 26, Diethyl α-(3-tert-butyl-4-hydroxy-5-methylphenyl)-β-[N-(pyrazinyl)-amino]-ethylphosphonate] | 19 to 55 |  |
| CCOP(=O)(OCC)C(CNc1ccon1)c1cc(C)c(O)c(OC)c1 (stereo not drawn) [Compound 87, diethyl α-(4-hydroxy-3-methoxy-5-methylphenyl)-β-[N-(3-isoxazolyl)-amino]-ethylphosphonate] | 19 to 55 |  |
| CCOP(=O)(OCC)C(CNc1ncccn1)c1cc(C)c(O)c(OC)c1 (stereo not drawn) [Compound 53, diethyl α-(4-hydroxy-3-methoxy-5-methylphenyl)-β-[N-(2-pyrimidinyl)-amino]-ethylphosphonate] | 19 to 55 | 133 to 136 |
| COc1cc(C(CNc2cccnc2)P(=O)(OC(C)C)OC(C)C)cc(OC)c1O (stereo not drawn) [Compound 33, diisopropyl α-(3,5-dimethoxy-4-hydroxyphenyl)-β-[N-(3-pyridyl)-amino]-ethylphosphonate] | 19 to 55 | 156 to 158 |
| Cc1cc(C(CNc2cccnc2)P(=O)(OC(C)C)OC(C)C)cc(C)c1O (stereo not drawn) [Compound 47, diisopropyl α-(3,5-dimethyl-4-hydroxyphenyl)-β-[N-(3-pyridyl)-amino]-ethylphosphonate] | 19 to 55 |  |
| CCOP(=O)(OCC)C(CNc1cnccn1)c1cc(C)c(O)c(OC)c1 (stereo not drawn) [Compound 44, diethyl α-(4-hydroxy-3-methoxy-5-methylphenyl)-β-[N-(pyrazinyl)-amino]-ethylphosphonate] | 19 to 55 |  |
| CCOP(=O)(OCC)C(CNc1cnccn1)c1cc(OC)c(O)c(OC)c1 (stereo not drawn) [Compound 42, diethyl α-(3,5-dimethoxy-4-hydroxyphenyl)-β-[N-(pyrazinyl)-amino]-ethylphosphonate] | 19 to 55 | 147 to 148 |
| COc1cc(C(CNc2cnccn2)P(=O)(OC(C)C)OC(C)C)cc(OC)c1O (stereo not drawn) [Compound 43, diisopropyl α-(3,5-dimethoxy-4-hydroxyphenyl)-β-[N-(pyrazinyl)-amino]-ethylphosphonate] | 19 to 55 | 169 to 171 |
| CCOP(=O)(OCC)C(CNc1nccs1)c1cc(C)c(O)c(OC)c1 (stereo not shown) |  | 85 to 87 |
| COc1cc(C(CNc2cccnc2)P(=O)(OC(C)C)OC(C)C)cc(C)c1O (stereo not drawn) [Compound 35, diisopropyl α-(4-hydroxy-3-methoxy-5-methylphenyl)-β-[N-(3-pyridyl)amino]-ethylphosphonate] | 19 to 55 |  |
| CCOc1cc(C(CNc2cccnc2)P(=O)(OCC)OCC)cc(C)c1O (stereo not drawn) [Compound 55, diethyl α-(3-ethoxy-4-hydroxy-5-methylphenyl)-β-[N-(3-pyridyl)-amino]-ethylphosphonate] | 19 to 55 | 155 to 156 |
| CCOP(=O)(OCC)C(CNc1cccnc1)c1cc(OC)c(O)c(OC)c1 (stereo not shown) |  | 152 to 154 |
| CCOP(=O)(OCC)C(CNc1cnccn1)c1cc(C)c(O)c(C)c1 (stereo not drawn) [Example 25, Diethyl α-(3,5-dimethyl-4-hydroxyphenyl)-β-[N-(pyrazinyl)-amino]-ethylphosphonate] | 19 to 55 |  |
| CCOP(=O)(OCC)C(CNc1nc2ccccc2s1)c1cc(C)c(O)c(OC)c1 (stereo not drawn) [Compound 81, diethyl α-(4-hydroxy-3-methoxy-5-methylphenyl)-β-[N-(2-benzothiazolyl)-amino]-ethylphosphonate] | 19 to 55 |  |
